Measured values taken from ChEMBL document CHEMBL1201862, “PubChem BioAssay data set” (2004).
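Briefly, cells in 96-well plates were exposed to five compound concentrations for 48 h, and endpoints were estimated by linear interpolation. Here, GI50 denotes the concentration required for 50% inhibition of growth.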 Calls of active or inactive are those of the source. Rule as the data show it: active = GI50 up to about 1.1 µM and inactive = higher.

Legend:
Experiment in all cases: inhibition of tumour cell growth, NCI panel, 48 h
[1] = tested on: A549
[2] = tested on: BT-549
[3] = tested on: CCRF-CEM
[4] = tested on: DU-145
[5] = tested on: EKVX
[6] = tested on: HCT-15
[7] = tested on: HT-29
[8] = tested on: KM12
[9] = tested on: MCF7
[10] = tested on: NCI-H460
[11] = tested on: OVCAR-3
[12] = tested on: RPMI-8226
[13] = tested on: SF-539
[14] = tested on: SR
[15] = tested on: SW-620
[16] = tested on: TK-10
[17] = tested on: UACC-257
[18] = tested on: 786-0

SMILES	GI50 [1]	GI50 [2]	GI50 [3]	GI50 [4]	GI50 [5]	GI50 [6]	GI50 [7]	GI50 [8]	GI50 [9]	GI50 [10]	GI50 [11]	GI50 [12]	GI50 [13]	GI50 [14]	GI50 [15]	GI50 [16]	GI50 [17]	GI50 [18]
COC1=CC(=O)c2c(c(COC(C)=O)cn2C)C1=O	0.207 µM (active)	0.0208 µM (active)	0.234 µM (active)	0.0457 µM (active)	0.279 µM (active)	0.0197 µM	0.0261 µM (active)	0.0962 µM (active)	0.184 µM (active)	0.115 µM (active)	0.158 µM (active)	0.211 µM (active)	0.138 µM (active)	0.211 µM (active)	0.0249 µM (active)	0.0408 µM (active)	0.334 µM (active)	
COC(=O)c1ccc2cc(O)ccc2c1	69.2 µM (inactive)	79.6 µM (inactive)	> 100 µM (inactive)	> 100 µM (inactive)	55.8 µM (inactive)	> 100 µM	47.6 µM (inactive)	39.9 µM (inactive)	55 µM (inactive)		> 100 µM (inactive)	53.5 µM (inactive)	89.3 µM (inactive)	22 µM (inactive)	> 100 µM (inactive)	> 100 µM (inactive)	> 100 µM (inactive)	89.9 µM (inactive)
CCOC(=O)c1cc(C2(O)CCN(CC(C)CC)C2=O)c(-c2cc(C)no2)[nH]1 (centres undefined)	> 100 µM (inactive)	> 100 µM (inactive)	> 100 µM (inactive)	> 100 µM (inactive)	> 100 µM (inactive)	> 100 µM	> 100 µM (inactive)	> 100 µM (inactive)	> 100 µM (inactive)	> 100 µM (inactive)	> 100 µM (inactive)	> 100 µM (inactive)	> 100 µM (inactive)	> 100 µM (inactive)	> 100 µM (inactive)		> 100 µM (inactive)	> 100 µM (inactive)
COc1cc(O)c2c(O)c3c(c4c2c1[C@]1(C4)C(C)=CCCC1(C)C)[C@H](O)[C@@]1(O)CC(O)=C(C(N)=O)C(=O)[C@@]1(O)C3=O	0.0499 µM (active)	0.318 µM (active)	0.0326 µM (active)	0.359 µM (active)	0.18 µM (active)	0.164 µM	0.0615 µM (active)	0.346 µM (active)	0.164 µM (active)	0.0435 µM (active)	0.228 µM (active)	0.0612 µM (active)	0.166 µM (active)	0.269 µM (active)	0.0619 µM (active)	0.189 µM (active)	0.231 µM (active)	0.247 µM (active)
COc1ccc2c(c1)CCN1CCCc3ccccc3C21 (centres undefined)	50.5 µM (inactive)	28.1 µM (inactive)	37.5 µM (inactive)	> 100 µM (inactive)	> 100 µM (inactive)	37.6 µM	28.2 µM (inactive)	33.7 µM (inactive)	25.4 µM (inactive)		79.3 µM (inactive)	22.3 µM (inactive)	17.5 µM (inactive)	31.8 µM (inactive)	52 µM (inactive)	> 100 µM (inactive)	41.9 µM (inactive)	38.4 µM (inactive)
CC(C)OC(=O)[C@@H](O)[C@H](CO)C1=CC([Si](C)(C)c2ccccc2)=CON1	> 100 µM (inactive)	> 100 µM (inactive)		> 100 µM (inactive)	> 100 µM (inactive)	> 100 µM	> 100 µM (inactive)	> 100 µM (inactive)	> 100 µM (inactive)	> 100 µM (inactive)	> 100 µM (inactive)	> 100 µM (inactive)	> 100 µM (inactive)	> 100 µM (inactive)	> 100 µM (inactive)	> 100 µM (inactive)	> 100 µM (inactive)	> 100 µM (inactive)
CCCCC1(O)CC2CC1C(C)C2(C)C (centres undefined)	> 100 µM (inactive)	> 100 µM (inactive)	93.5 µM (inactive)	> 100 µM (inactive)	> 100 µM (inactive)	> 100 µM	> 100 µM (inactive)	> 100 µM (inactive)	> 100 µM (inactive)		> 100 µM (inactive)	54.6 µM (inactive)	> 100 µM (inactive)	44.8 µM (inactive)	> 100 µM (inactive)	> 100 µM (inactive)	> 100 µM (inactive)	> 100 µM (inactive)
CCCNC1=C2C[C@@H](C)C[C@@H](OC)[C@@H](OC(=O)CCCN)[C@H](C)/C=C(\C)[C@@H](OC(N)=O)[C@H](OC)/C=C\C=C(/C)C(=O)NC(=CC1=O)C2=O	15.7 µM (inactive)	13.2 µM (inactive)	2.52 µM (inactive)	12.1 µM (inactive)	17.6 µM (inactive)	21.5 µM	7.05 µM (inactive)	10.6 µM (inactive)	7.69 µM (inactive)	11.2 µM (inactive)	8.61 µM (inactive)	5.94 µM (inactive)	20.3 µM (inactive)	7.98 µM (inactive)	10.6 µM (inactive)	17.9 µM (inactive)		20.8 µM (inactive)
CCCCCCCCCCc1c2nc(c(CCCCCCCCCC)c3ccc([nH]3)c(CCCCCCCCCC)c3nc(c(CCCCCCCCCC)c4ccc1[nH]4)C=C3)C=C2	> 100 µM (inactive)	> 100 µM (inactive)	> 100 µM (inactive)	> 100 µM (inactive)	> 100 µM (inactive)	> 100 µM	> 100 µM (inactive)	> 100 µM (inactive)	> 100 µM (inactive)	> 100 µM (inactive)	> 100 µM (inactive)	> 100 µM (inactive)	> 100 µM (inactive)	> 100 µM (inactive)	> 100 µM (inactive)	> 100 µM (inactive)	> 100 µM (inactive)	> 100 µM (inactive)
O=c1oc2cc(/N=C/c3ccccc3Cl)ccc2c2ccccc12	> 100 µM (inactive)	> 100 µM (inactive)	> 100 µM (inactive)	> 100 µM (inactive)	49.2 µM (inactive)	> 100 µM	> 100 µM (inactive)	> 100 µM (inactive)	14.2 µM (inactive)	> 100 µM (inactive)	> 100 µM (inactive)	> 100 µM (inactive)	> 100 µM (inactive)	> 100 µM (inactive)	> 100 µM (inactive)		> 100 µM (inactive)	> 100 µM (inactive)
C[C@]12CC[C@H](O)CC1=CC[C@@H]1[C@@H]2CC[C@]2(C)C(=N/N)/C(=N\O)C[C@@H]12	> 100 µM (inactive)	32.8 µM (inactive)	44.2 µM (inactive)	> 100 µM (inactive)	74.1 µM (inactive)	3.94 µM	36 µM (inactive)	38.2 µM (inactive)	> 100 µM (inactive)		> 100 µM (inactive)	> 100 µM (inactive)	> 100 µM (inactive)	7.78 µM (inactive)	60 µM (inactive)	> 100 µM (inactive)	> 100 µM (inactive)	50.7 µM (inactive)
O=c1oc2c/c(=C\c3ccccc3)c(=O)c3cccc1c3-2	> 100 µM (inactive)	28.3 µM (inactive)		51.1 µM (inactive)	75.3 µM (inactive)	36.6 µM	55.6 µM (inactive)	24.9 µM (inactive)	> 10 µM (inactive)	74.5 µM (inactive)	23.6 µM (inactive)	36.2 µM (inactive)	31.5 µM (inactive)	28.8 µM (inactive)	25.1 µM (inactive)	> 100 µM (inactive)	31.7 µM (inactive)	22.8 µM (inactive)
c1ccc([P+](c2ccccc2)(c2ccccc2)c2ccc([P+](c3ccccc3)(c3ccccc3)c3ccccc3)cc2)cc1	64.9 µM (inactive)	31.3 µM (inactive)	22.9 µM (inactive)	52.8 µM (inactive)		> 100 µM	45.8 µM (inactive)	31 µM (inactive)	32.4 µM (inactive)	43.5 µM (inactive)	48.2 µM (inactive)	> 100 µM (inactive)	24.8 µM (inactive)	0.0815 µM (active)	> 100 µM (inactive)	60.7 µM (inactive)	29.2 µM (inactive)	> 100 µM (inactive)
CCOC(=O)c1c2c(n3ccccc13)C(=O)c1ccccc1C2=O	3.82 µM (inactive)	21.6 µM (inactive)		> 100 µM (inactive)	> 100 µM (inactive)	11.1 µM	> 100 µM (inactive)	> 100 µM (inactive)	46 µM (inactive)	3.52 µM (inactive)	> 100 µM (inactive)	> 100 µM (inactive)	36.7 µM (inactive)	> 100 µM (inactive)	> 100 µM (inactive)	83.4 µM (inactive)	> 100 µM (inactive)	19.1 µM (inactive)
COc1cc2c(c(OC)c1OC)-c1ccc(SC)c(=O)cc1[C@@H](OC(=O)c1ccncc1)CC2	< 0.01 µM (active)	< 0.01 µM (active)	< 0.01 µM (active)	< 0.01 µM (active)		< 0.01 µM	< 0.01 µM (active)	< 0.01 µM (active)	< 0.01 µM (active)	< 0.01 µM (active)	< 0.01 µM (active)	< 0.01 µM (active)	< 0.01 µM (active)	< 0.0145 µM (active)	< 0.01 µM (active)	4.92 µM (inactive)	< 0.01 µM (active)	< 0.01 µM (active)
CS(=O)(=O)c1ccc2nc(-c3ccc(O)cc3)sc2c1	16.4 µM (inactive)	16.4 µM (inactive)	25.2 µM (inactive)	15.7 µM (inactive)	10.5 µM (inactive)	16.9 µM	13.2 µM (inactive)	16 µM (inactive)	17.5 µM (inactive)	19.4 µM (inactive)	16.6 µM (inactive)	15.7 µM (inactive)	11 µM (inactive)	10.1 µM (inactive)	20.7 µM (inactive)	16.3 µM (inactive)	19.6 µM (inactive)	
